The values below come from patent US20200223826A1, “Glucose-6-Phosphate Dehydrogenase (G6PD)-Modulating Agents And Methods Of Treating G6PD Deficiency” (The Board of Trustees of the Leland Stanford Junior …, priority 2017, published 2020).

Each structure is given as a SMILES string.

The test system of data set [1] is lymphocytes carrying the Canton variant. Kind of data set: Cellular ROS measurement in lymphocytes. Format: cell-based, human. The settings on record: treatment with AG1 for 24 hours. The protocol: Cells in a 96-well plate were incubated with chloromethyl-2′,7′-dichlorodihydrofluorescein diacetate (CM-H2DCFDA) at a final concentration of 5 μM in HBSS (Hank's balanced salt solution) for 30 minutes at 37° C. After wash, cells were treated with Hoechst 33342 (1:10,000 dilution, Molecular Probes) to stain nuclei and incubated for another 10 minutes at 37° C. Cells were washed in HBSS, and the florescence was analyzed with excitation/emission at 485/525 nm. Cells were subjected to serum starvation (50-75%) for 48 hours to induce oxidative stress and treated with the compound for 24 hours before measurement. The signal was normalized to nuclei staining (excitation/emission at 350/470 nm).

In a further data set the test system is zebrafish embryos. Kind of data set: Zebrafish embryo development. The class given is in vivo. The settings on record: treated at 24 hpf, scored at 32 or 48 hpf. The protocol:
Adult zebrafish (AB strain; 3-18 months old) were raised and embryos were obtained through natural mating and staged according to standard protocols. Adult tbx16b104/+ were obtained. All animal procedures were performed according to NIH guidelines. Embryos were raised in E3 medium at 28.5° C.
Embryos were dechorinated with pronase at 24 hours post fertilization (hpf) and treated with 50 μg/ml of chloroquine and/or AG1 by directly adding the compounds to the well. For ROS measurements, embryos were incubated with compounds for 2 hours, and then the ROS detecting reagent (CM-H2DCFDA) was added at a final concentration of 500 ng/ml to the well for a total treatment time of 5 hours. One embryo was placed to each well of a black, opaque 96-well plate. The florescence was analyzed with excitation/emission at 485/525 nm. After ROS assays, embryos at about 32 hpf were pooled and lysed in buffer containing 50 mM Tris (pH 7.4), 150 mM NaCl, 1 mM EDTA, 0.1% NP-40, and protease inhibitor cocktail, which was followed by three cycles of freeze and thawing in liquid nitrogen. The lysate was centrifuged at 14,000 rpm at 4° C. for 15 minutes. Total protein concentration in the supernatants (total lysate) was determined by Bradford method. […] 50 μg of the lysate was used to measure NADPH levels using a NADPH quantification kit (Biovision), according to the manufacturer's instructions. […]

A further data set concerns human erythrocytes. Kind of data set: Erythrocyte refrigerated storage assay, hemolysis. The class given is cell-based. The settings on record: 672 h, read-out: reduction of hemolysis. The protocol: De-identified blood samples were obtained from the Stanford Blood Center. Erythrocytes were collected by filtering the samples through a cellulose slurry to remove platelets and leukocytes and then washed with saline. G6PD activity was measured (Beutler E. Red cell metabolism: A manual of biochemical methods (3rd edition). Grune & Stratton (1984)). […] A 5% erythrocyte suspension was pre-incubated with 1-5 μM AG1 at 4° C. overnight, which was followed by treatment with (or without) either 1 mM chloroquine (CQ) or 1 mM diamide for 3-4 hours at 37° C. (for hemolysis assay with chloroquine, the mixture was incubated under light). Then centrifugation at 1,000 rpm for 5 minutes was followed. Hemoglobin release in the supernatant was monitored by measuring absorbance at 540 nm. […] After wash, the samples were lysed with 0.1% Triton X-100 (final concentration), and the florescence was analyzed with excitation/emission at 485/525 nm. GSH measurement was determined using a Cayman glutathione assay kit (Cayman Chemicals, 703002). […] The absorbance was read at 412 nm. For storage assay, a 5% erythrocyte suspension was stored at 4° C. with and without 1 μM AG1, and hemolysis and G6PD activity were monitored every week for 28 days to examine whether AG1 improves preservation of erythrocytes over time. Protein leakage was also examined by measuring the absorbance of the supernatant of samples at 280 nm. […]

The target in data set [2] is T1, Canton G6PD in lymphocytes carrying the Canton variant (Homo sapiens, UniProt P11413, R459L).
T1 construct: host or cells: lymphocytes from a G6PD-deficient subject
Kind of data set: Cycloheximide chase assay in lymphocytes. The class given is cell-based. The settings on record: 1 μM; 24 hours following cycloheximide treatment. The method, then:
Lymphocytes derived from a normal subject (HG 00866) and a G6PD-deficient subject carrying Canton variant in G6PD (HG 02367) were purchased from Coriell Institute and cultured in RPMI 1640 supplemented with 15% fetal bovine serum (FBS), 100 U/ml penicillin, and 100 μg/ml streptomycin. An SH-SY5Y neuroblastoma cell line was cultured in Dulbecco's Modification of Eagle's Medium/Ham's F-12 50/50 Mix supplemented with 10% FBS, 100 U/ml penicillin, and 100 μg/ml streptomycin. A G6PD-deficient subject-derived fibroblast cell line carrying Mediterranean variant and normal fibroblast cell line as control were purchased from Coriell Institute (GM 01152) and ThermoFisher Scientific (C0135C), respectively, and cultured in minimum essential medium supplemented with 15% FBS, 100 U/ml penicillin, and 100 μg/ml streptomycin. All the cell lines were maintained at 37° C. in a humidified incubator with an atmosphere of 5% of CO2 and 95% air.
50,000 cells (SH-SH5Y cells or fibroblast cells) or 100,000 cells (lymphocytes) were seeded in a 12-well plate and incubated overnight. The cells were subjected to serum starvation (50-75%) for 48 hours and treated with 50 μg/ml of cycloheximide at different time points (0-48 hours). The cells were treated with the compound (1 μM) for 48 hours together with cycloheximide. […]

T1 sequence (P11413 2-515 R459L limits assumed): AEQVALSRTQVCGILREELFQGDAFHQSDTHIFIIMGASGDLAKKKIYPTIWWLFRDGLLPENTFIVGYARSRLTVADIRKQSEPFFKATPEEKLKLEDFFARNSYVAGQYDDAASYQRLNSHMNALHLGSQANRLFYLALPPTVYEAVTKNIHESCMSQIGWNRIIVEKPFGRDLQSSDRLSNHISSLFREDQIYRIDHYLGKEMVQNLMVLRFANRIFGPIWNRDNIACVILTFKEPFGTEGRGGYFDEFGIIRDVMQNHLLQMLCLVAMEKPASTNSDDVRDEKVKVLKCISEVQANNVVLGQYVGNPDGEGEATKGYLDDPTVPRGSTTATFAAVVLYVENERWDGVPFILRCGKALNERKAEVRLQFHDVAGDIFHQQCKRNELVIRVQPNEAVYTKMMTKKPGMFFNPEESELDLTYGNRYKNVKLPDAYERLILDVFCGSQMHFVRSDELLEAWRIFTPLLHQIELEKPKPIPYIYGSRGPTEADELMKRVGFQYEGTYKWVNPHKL

In the case of `SCCNCCc1c[nH]c2ccccc12` [AG1, 2-[2-(1H-indol-3-yl)ethylamino]ethanethiol], the ROS level entry in data set [1] was “decreased”. In addition, the “concentrations at which embryos developed normally” value in the data set on zebrafish embryos was under 10 µM. Further, the reduction of hemolysis at 1 µM in the data set with human erythrocytes was found to be 12%. Also, in data set [2], the “level of Canton protein, higher relative to vehicle treatment” value came to 48%.
